Each structure is given as a SMILES string.

One may read the Kd as the constant that tells how readily two partners part at equilibrium. Read a high Kd as lower affinity.

Format in all cases: binding
In one test the target is human UGGT1 (Homo sapiens, UniProt Q9NYU2). Description: STD NMR.
For test [1], the target named is T1, CtUGGTGT24 (UDP-glucose glycoprotein glucosyltransferase, catalytic domain) (Thermochaetoides thermophila, UniProt G0SB58).
T1 sequence (G0SB58 1187-1473): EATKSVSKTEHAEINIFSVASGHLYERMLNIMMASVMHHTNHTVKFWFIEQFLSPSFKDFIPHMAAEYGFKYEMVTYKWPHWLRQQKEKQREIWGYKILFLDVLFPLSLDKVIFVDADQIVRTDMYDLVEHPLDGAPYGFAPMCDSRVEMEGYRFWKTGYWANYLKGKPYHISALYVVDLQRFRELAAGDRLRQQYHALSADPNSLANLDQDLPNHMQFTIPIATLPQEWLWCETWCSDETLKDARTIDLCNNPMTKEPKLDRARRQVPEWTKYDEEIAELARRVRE
Nature of the test: […] Å co-crystal structure.

Test [2] deals with T1, CtUGGTGT24 (UDP-glucose glycoprotein glucosyltransferase, catalytic domain). Nature of the test: co-crystal structure.

human UGGT1, sequence (Q9NYU2 43-1551): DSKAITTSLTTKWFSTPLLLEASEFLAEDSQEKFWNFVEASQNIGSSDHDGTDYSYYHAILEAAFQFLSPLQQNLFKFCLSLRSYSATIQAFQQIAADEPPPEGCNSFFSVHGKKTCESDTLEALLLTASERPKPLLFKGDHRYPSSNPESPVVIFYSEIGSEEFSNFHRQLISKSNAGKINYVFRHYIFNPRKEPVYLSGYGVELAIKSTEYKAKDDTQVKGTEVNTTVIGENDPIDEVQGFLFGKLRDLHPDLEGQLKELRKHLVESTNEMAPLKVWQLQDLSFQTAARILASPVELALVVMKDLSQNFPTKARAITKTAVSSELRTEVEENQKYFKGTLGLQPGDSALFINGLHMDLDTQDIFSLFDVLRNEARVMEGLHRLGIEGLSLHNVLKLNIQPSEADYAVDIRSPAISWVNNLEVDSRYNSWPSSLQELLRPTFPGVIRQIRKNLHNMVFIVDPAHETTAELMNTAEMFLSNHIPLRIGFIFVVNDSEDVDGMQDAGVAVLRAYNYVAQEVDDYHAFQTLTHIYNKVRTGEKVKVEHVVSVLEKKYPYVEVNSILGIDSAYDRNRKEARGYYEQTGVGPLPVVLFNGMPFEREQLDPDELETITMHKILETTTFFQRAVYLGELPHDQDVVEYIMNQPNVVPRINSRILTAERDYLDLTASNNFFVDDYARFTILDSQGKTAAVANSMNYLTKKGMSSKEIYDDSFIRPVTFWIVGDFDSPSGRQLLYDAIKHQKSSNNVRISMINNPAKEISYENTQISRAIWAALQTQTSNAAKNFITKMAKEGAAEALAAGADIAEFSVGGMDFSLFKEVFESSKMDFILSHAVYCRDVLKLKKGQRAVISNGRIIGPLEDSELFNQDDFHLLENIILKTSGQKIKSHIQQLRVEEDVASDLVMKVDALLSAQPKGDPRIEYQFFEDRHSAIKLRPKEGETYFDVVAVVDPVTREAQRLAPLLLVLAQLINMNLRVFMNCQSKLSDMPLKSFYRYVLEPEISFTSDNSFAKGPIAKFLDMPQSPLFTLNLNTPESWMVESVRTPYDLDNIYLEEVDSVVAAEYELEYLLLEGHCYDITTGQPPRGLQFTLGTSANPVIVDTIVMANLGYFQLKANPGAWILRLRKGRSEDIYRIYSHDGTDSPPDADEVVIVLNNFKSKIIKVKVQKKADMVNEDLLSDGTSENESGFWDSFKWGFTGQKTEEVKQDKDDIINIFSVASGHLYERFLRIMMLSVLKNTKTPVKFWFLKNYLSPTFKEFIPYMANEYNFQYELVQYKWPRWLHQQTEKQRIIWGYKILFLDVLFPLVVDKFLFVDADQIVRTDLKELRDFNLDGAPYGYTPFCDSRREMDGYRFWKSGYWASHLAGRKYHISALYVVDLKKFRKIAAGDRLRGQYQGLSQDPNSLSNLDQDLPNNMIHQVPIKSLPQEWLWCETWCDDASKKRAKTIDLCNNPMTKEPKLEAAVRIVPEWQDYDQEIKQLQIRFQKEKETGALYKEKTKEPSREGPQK

In the case of `Oc1ccc(CN2CCOCC2)c2cccnc12` [5M-8OH-Q, 5-[(morpholin-4-yl)methyl]quinolin-8-ol], the values for the Kd (at human UGGT1; in test [1]) were 613 µM and 47 ± 0.7 µM, respectively. As for `O=c1ccn([C@@H]2O[C@H](COP(=O)(O)OP(=O)(O)O[C@H]3O[C@H](CO)[C@@H](O)[C@H](O)[C@H]3F)[C@@H](O)[C@H]2O)c(=O)[nH]1` [U2F], the “co-crystal structure (X-ray)” value in test [2] is listed as “In the ^U2FCtUGGTGT24 structure (PDB ID 7ZLU) these two water molecules are replaced by an O atom”.

(Values after paper PMC10562782 (iScience, 2023).)
